Laboratory results reported in publication PMC11940343, “In Vitro and In Vivo Evaluation of the De Novo Designed Antimicrobial Peptide P6.2 Against a KPC-Producing P. aeruginosa Clinical Isolate” (Biomolecules, 2025).
Converted amounts (≈) assume the structure as drawn. Where two headings read alike, the source gives them in different places.

How the values were obtained:
[1] = system: Pseudomonas aeruginosa M13513; assay: MIC by broth microdilution (CLSI); format: cell-based; conditions: two consecutive values shown where replicates varied by one dilution
Source text: Pseudomonas aeruginosa M13513 is a clinical isolate carrying the carbapenemase KPC-2 (blaKPC-2 gene). This strain was generously supplied by the Servicio Antimicrobianos, Instituto Nacional de Enfermedades Infecciosas (INEI)-ANLIS “Dr. Carlos G. Malbrán” in Buenos Aires, Argentina.
For antimicrobial testing, bacterial cultures were maintained in Cation-Adjusted Mueller–Hinton Broth (CAMHB), following Clinical and Laboratory Standards Institute (CLSI) guidelines.
The minimal inhibitory concentration was assessed using a standard microdilution assay, following CLSI guidelines. Mueller–Hinton Broth (Laboratorios Britania S.A., Buenos Aires, Argentina) supplemented with Ca^2+ (20–25 mg/L) and Mg^2+ (10–12.5 mg/L) was used for the assay. The bacterial strains tested included Pseudomonas aeruginosa PAO1, Pseudomonas aeruginosa M13513, and Staphylococcus aureus ATCC® 25923.

Gram-negative bacteria = conditions: cited from earlier work
Source text: This resistance arises from enzymatic inactivation by carbapenemases, as mentioned before, decreased cellular entry due to reduced expression of the outer membrane porins, and increased expression of efflux pumps.

[2] = Pseudomonas aeruginosa, M13513, CAMHB, read-out: MIC

Compound	MIC ([1]; CAMHB)	MIC [1, 2] [µg/mL]	further results
C[C@@H](O)[C@H]1C(=O)N2C(C(=O)O)=C(SCCN=CN)C[C@H]12 [Imipenem]	256/512		
polymyxin B			interaction with meropenem (Gram-negative bacteria): displays synergy with meropenem

Second part, led by results:

MIC ([1]; CAMHB)	MIC [1, 2] [µg/mL]	Compound	further results
	2 (≈ 4.19 µM)	CNC(C)C1CCC(N)C(OC2C(N)CC(N)C(OC3OCC(C)(O)C(NC)C3O)C2O)O1 (centres unmarked) [Gentamicin]	
512/1024		C[C@@H](O)[C@H]1C(=O)N2C(C(=O)O)=C(S[C@@H]3CN[C@H](C(=O)N(C)C)C3)[C@H](C)[C@H]12 [Meropenem, meropenem]	
	1 (≈ 2.14 µM)	NC[C@H]1O[C@H](O[C@H]2[C@H](O)[C@@H](O[C@H]3O[C@H](CO)[C@@H](O)[C@H](N)[C@H]3O)[C@H](N)C[C@@H]2N)[C@H](N)C[C@@H]1O [Tobramycin]	
